Experimental data as given in patent publication US20260232616A1, “USE OF SIVELESTAT IN ANALGESIA” (SHANGHAI HUILUN PHARMACEUTICAL CO., LTD., priority 2023, published 2026).
Marks after values point to notes of the source that are not given here.

Test system: rat model of postoperative pain
Assay: Mechanical allodynia testing in a rat model of postoperative pain (hind paw incision)
Format: in vivo
Conditions: for Mechanical allodynia threshold (PWT (g)): single dose
[1] = Sivelestat sodium 100 mg/kg IP, 0.5 h
[2] = Sivelestat sodium 100 mg/kg IP, 1 h
[3] = Sivelestat sodium 100 mg/kg IP, 2 h
[4] = Sivelestat sodium 150 mg/kg IP, 0.5 h
[5] = Sivelestat sodium 150 mg/kg IP, 1 h
[6] = Sivelestat sodium 150 mg/kg IP, 2 h
[7] = Sivelestat sodium 150 mg/kg IP, 6 h
[8] = Sivelestat sodium 200 mg/kg IP, 0.5 h
[9] = Sivelestat sodium 200 mg/kg IP, 1 h
[10] = Sivelestat sodium 200 mg/kg IP, 2 h
[11] = Sivelestat sodium 300 mg/kg IP, 0.5 h
[12] = Sivelestat sodium 300 mg/kg IP, 1 h
[13] = Sivelestat sodium 300 mg/kg IP, 2 h

## CC(C)(C)C(=O)Oc1ccc(S(=O)(=O)Nc2ccccc2C(=O)NCC(=O)O)cc1 [Sivelestat sodium, sivelestat sodium]
[1]
  % MPE (anti-allodynic effect): 25.2* %
  Mechanical allodynia threshold (PWT (g)): 5.5 g
[2]
  % MPE (anti-allodynic effect): 42.4*** %
  Mechanical allodynia threshold (PWT (g)): 7.8 g
[3]
  % MPE (anti-allodynic effect): 44.1*** %
  Mechanical allodynia threshold (PWT (g)): 8.3 g
[4]
  % MPE (anti-allodynic effect): 31.4*** %
  Mechanical allodynia threshold (PWT (g)): 6.3 g
[5]
  % MPE (anti-allodynic effect): 51.1*** %
  Mechanical allodynia threshold (PWT (g)): 8.9 g
[6]
  % MPE (anti-allodynic effect): 48.4*** %
  Mechanical allodynia threshold (PWT (g)): 8.8 g
[7]
  % MPE (anti-allodynic effect): 11.3%
  Mechanical allodynia threshold (PWT (g)): 3.9 g
[8]
  % MPE (anti-allodynic effect): 32.6*** %
  Mechanical allodynia threshold (PWT (g)): 6.4 g
[9]
  % MPE (anti-allodynic effect): 55.1*** %
  Mechanical allodynia threshold (PWT (g)): 9.4 g
[10]
  % MPE (anti-allodynic effect): 45.3*** %
  Mechanical allodynia threshold (PWT (g)): 8.4 g
[11]
  % MPE (anti-allodynic effect): 37.5*** %
  Mechanical allodynia threshold (PWT (g)): 7.0 g
[12]
  % MPE (anti-allodynic effect): 49*** %
  Mechanical allodynia threshold (PWT (g)): 8.6 g
[13]
  % MPE (anti-allodynic effect): 52.6*** %
  Mechanical allodynia threshold (PWT (g)): 9.3 g
Rat postoperative pain model, conclusion from Embodiment 1
  duration of a high level of analgesic efficacy: more than 6 h
